Values quoted from earlier work, collected in US9597409B2, “Methods of treating cancer” (Abraxis BioScience, LLC, priority 2010, dated 2017).

Test system: patients with locally advanced or metastatic NSCLC
Conditions: single agents commonly used to treat NSCLC

## CCC1=C[C@@H]2CN(C1)Cc1c([nH]c3ccccc13)[C@@](C(=O)OC)(c1cc3c(cc1OC)N(C)[C@H]1[C@@](O)(C(=O)OC)[C@H](OC(C)=O)[C@]4(CC)C=CCN5CC[C@]31[C@@H]54)C2 [vinorelbine]
  response rate (RR): 29.4%
